# Assay results: patent US6632668B2, “Monolayer sheet structure of primary hepatocytes obtained using a protein-phosphorylation inhibitor” (Japan as represented by the Secretary of Agency of …, priority 2000, dated 2003)
# Legend:
# [1] = system: primary hepatocytes; experiment: Monolayer formation of primary hepatocytes on collagen-coated plates, phase contrast microscope observation; format: cell-based, rat; conditions: 50 nM staurosporine, 4 h + 20 h standing culture
# Protocol: In order to isolate primary hepatocytes, rat livers were used and primary hepatocytes were isolated from the rat livers by ordinary methods, that was, by collagenase perfusion followed method and four subsequent low-speed centrifuge isolation. The hepatocytes were suspended in an animal cell culture medium (Williams' E medium) containing 10 nM Dexamethasone and 10% fetal bovine serum, and seeded at a cell concentration of 10×10^4 cell/cm^2 on 6-well cell culture plastic plates coated with type I collagen. For the samples to be treated, staurosporine was added to the medium to a final concentration of 50 nM. Next, they were subjected to standing culture for 4 hours at 37° C. in a CO2 incubator in the presence of 5% (v/v) CO2, and the medium was replaced with Williams' E medium containing 10 nM insulin, 10 nM dexamethasone and 0.7 μg/ml aprotinin. For the samples to be treated, staurosporine was again added to the medium to a final concentration of 50 nM. Finally, after the standing culture for 20 hours, the condition of the cells was observed through a phase contrast microscope.
# The results in FIG. 1 show clearly that in the case of the hepatocytes not treated with staurosporine, cell aggregates are formed, which comprises intermittently linked patch-like discontinuous monolayers of one to tens of cells.
# [2] = system: primary rat hepatocytes monolayer; experiment: Dye permeation assay using transwell filters (bromphenol-blue, OD 655 nm); format: cell-based; conditions: staurosporine-treated monolayer on transwell filters
# Protocol: In parallel with Example 1 above, primary rat hepatocytes were seeded on transwell filters (3-micron pore polytetrafluoroethylene coated with type I collagen) suitable to 24-well cell culture plates, and differences in the tightness of the cell monolayer structure produced by staurosporine treatment were measured by a dye permeation assay.
# In the dye permeation assay using transwell filters shown in A of FIG. 2, primary hepatocytes were seeded on transwell filters installed in wells on 24-well cell culture plates, and after the monolayer thereof was formed, 20 μl of dye (0.25% bromphenol-blue dye) was added to the upper liquid layer (medium) on the filter. 50 μl samples were then taken with the passage of time from the lower liquid layer (medium) on the filter at a constant temperature of 37° C., and absorbancy thereof (OD 655 nm) was measured.
# In the results of B of FIG. 2, courses with the passage of time of dye permeation through hepatocytes layers formed by conventional methods on transwell filters are indicated by the white circles ◯, while courses of dye permeation through hepatocytes layers formed by the methods of this invention are indicated by black circles ●. […]
structure (smiles),measurement,setting,value
"CNC1CC2OC(C)(C1OC)n1c3ccccc3c3c4c(c5c6ccccc6n2c5c31)C(=O)NC4 (stereo not drawn) [staurosporine, [9S-(9a,10b,11b,13a)]-9,13-epoxy-2,3,10,11,12,13-hexahydro-10-methoxy-9-methyl-11-(methylamino)-1H,9H-diindolo[1,2,3-gh:3′,2′,1′-1m]pyrrolo[3,4-j][1,7]benzodiazonin-1-one]",cell aggregates formed (monolayer structure),[1]; phase contrast microscope x200,a confluent continuous monolayer sheet of closely adjoining cells
same,adhesion (attachment) and extension (spreading) of hepatocytes on culture substrate,"[1]; type I collagen coated plates, versus untreated hepatocytes",improved
same,permeation of dye through hepatocytes monolayer,"[2]; 0.25% bromphenol-blue, 37° C., versus untreated cell layers",much less permeation of dye than that of the untreated cell layers
same,tightness between cells,[2]; concluded from dye permeation,greatly enhanced
